Reference: article PMC10362175, “Selenium-binding protein 1 (SELENBP1) is a copper-dependent thiol oxidase” (Redox Biology, 2023)

Assays:
Type in all cases: biochemical
[1] = molecular target: T1, methionine gamma-lyase (MGL) (Brevibacterium aurantiacum, UniProt A0A2H1K3G9); assay: DTNB (Ellman's reagent) trapping of volatile thiol, […] nm; details: HBS, 3 h
T1 construct: gene BAUR9175_03070

SELENBP1 = molecular target: T2, SELENBP1 (Homo sapiens, UniProt Q13228); assay: coupled MGL assay, H2S (lead acetate paper) and H2O2 (fluorometric); details: Cu cofactor, HBS pH 7.4, 37 °C, 3 h
T2 construct: Strep-tagged recombinant, E. coli BL21 or KRX, Strep-Tactin XT purified, 56 kDa
T2 sequence (Q13228 2-472): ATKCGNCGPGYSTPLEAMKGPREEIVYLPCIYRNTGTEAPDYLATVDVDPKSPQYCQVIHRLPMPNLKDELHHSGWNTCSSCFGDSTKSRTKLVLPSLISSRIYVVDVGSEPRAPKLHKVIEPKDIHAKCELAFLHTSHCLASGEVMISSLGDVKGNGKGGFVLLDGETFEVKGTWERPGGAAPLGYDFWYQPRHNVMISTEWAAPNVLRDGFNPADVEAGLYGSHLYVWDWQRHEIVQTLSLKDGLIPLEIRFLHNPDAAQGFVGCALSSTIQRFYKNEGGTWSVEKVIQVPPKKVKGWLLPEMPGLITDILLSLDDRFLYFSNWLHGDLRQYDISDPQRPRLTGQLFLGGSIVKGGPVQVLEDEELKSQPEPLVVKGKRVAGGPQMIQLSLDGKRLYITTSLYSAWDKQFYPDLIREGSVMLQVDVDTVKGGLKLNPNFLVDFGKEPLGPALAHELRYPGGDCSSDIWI

SEMO-1 = molecular target: T3, SEMO-1 (Caenorhabditis elegans, UniProt Q9XXF9); assay: as above; details: Cu cofactor; methanethiol generated in situ from L-methionine; HBS pH 7.4; 37 °C, 3 h
T3 construct: Strep-tagged recombinant, E. coli BL21 or KRX, Strep-Tactin XT purified
T3 sequence (Q9XXF9 entry or part of it): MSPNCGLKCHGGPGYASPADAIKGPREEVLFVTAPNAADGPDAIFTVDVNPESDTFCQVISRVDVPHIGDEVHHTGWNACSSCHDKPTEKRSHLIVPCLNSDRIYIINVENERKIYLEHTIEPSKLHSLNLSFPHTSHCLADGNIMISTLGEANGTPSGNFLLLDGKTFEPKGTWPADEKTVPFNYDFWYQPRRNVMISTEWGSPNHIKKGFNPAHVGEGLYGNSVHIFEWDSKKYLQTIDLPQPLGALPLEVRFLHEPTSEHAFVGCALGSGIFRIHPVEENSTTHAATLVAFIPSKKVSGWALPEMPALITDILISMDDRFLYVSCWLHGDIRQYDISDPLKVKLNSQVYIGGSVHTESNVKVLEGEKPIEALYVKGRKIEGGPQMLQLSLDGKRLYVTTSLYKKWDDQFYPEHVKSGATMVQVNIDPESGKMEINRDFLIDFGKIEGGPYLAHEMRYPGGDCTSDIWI

T1 sequence (A0A2H1K3G9 14-406 limits assumed): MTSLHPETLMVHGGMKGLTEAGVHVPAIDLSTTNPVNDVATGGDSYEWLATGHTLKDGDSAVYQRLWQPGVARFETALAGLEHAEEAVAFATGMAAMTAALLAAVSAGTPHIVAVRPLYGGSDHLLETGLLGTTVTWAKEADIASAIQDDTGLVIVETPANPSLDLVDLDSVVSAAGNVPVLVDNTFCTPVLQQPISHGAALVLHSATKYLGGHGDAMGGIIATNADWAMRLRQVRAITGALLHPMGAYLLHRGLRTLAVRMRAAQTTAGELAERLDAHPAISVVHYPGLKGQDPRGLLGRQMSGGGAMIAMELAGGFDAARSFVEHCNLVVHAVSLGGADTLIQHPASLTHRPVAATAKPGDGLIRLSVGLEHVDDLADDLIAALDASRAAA

Structure (SMILES): N[C@@H](CCS)C(=O)O [L-homocysteine]
- DTNB (Ellman's reagent) trapping of volatile thiol, 412 nm ([1]; product H2S): ethanethiol, methaneselenol and H2S were generated by MGL-mediated elimination from their precursor amino acids

Structure (SMILES): CSCC[C@H](N)C(=O)O [L-methionine]
- DTNB (Ellman's reagent) trapping of volatile thiol, 412 nm ([1]; product methanethiol): MGL-mediated generation of methanethiol from methionine served as positive control

Structure (SMILES): CCS [ethanethiol]
- coupled MGL assay, H2S (lead acetate paper) and H2O2 (fluorometric) (SELENBP1; ethanethiol generated in situ from DL-ethionine): methanethiol and ethanethiol are by far the best SELENBP1 substrates

Structure (SMILES): CS [methanethiol]
- coupled MGL assay, H2S (lead acetate paper) and H2O2 (fluorometric) (SELENBP1; methanethiol generated in situ from L-methionine): methanethiol and ethanethiol are by far the best SELENBP1 substrates
- coupled MGL assay, H2S (lead acetate paper) and H2O2 (fluorometric) (SEMO-1): only the addition of cupric ions was capable of regenerating and even enhancing MTO activity
